Patent US12006296B1, “5-(4-methoxyphenyl)-1-hexyl-2-(4-nitrophenyl)-4-phenyl-1H-imidazoleas an antimicrobial compound” (KING FAISAL UNIVERSITY, priority 2023, dated 2024)

Tests used:
Type in all cases: cell-based
Ps. aeruginosa = experiment: Antimicrobial testing by agar dilution, Ps. aeruginosa; conditions: Pseudomonas aeruginosa; after 10, 20, 40 and 60 min at all dilutions 1:100, 1:200, 1:400, 1:800; summary in words
Description: (§1) The antimicrobial properties of the 5-(4-methoxyphenyl)-1-hexyl-2-(4-nitrophenyl)-4-phenyl-1H-imidazole was studied by the method of agar dilution. Test solutions of each compound was prepared in concentration of 1% using dimethylformamide as a solvent then they are diluted in physiological solution to obtain the final experimental dilutions 1:100, 1:200, 1:400, 1:800. The effect of these substances are compared with furacillin in a controllable study. The testing microbes used were gram positive bacteria St. Aereus, gram negative bacteria E. Coli, Ps. aeruginosa and Candida albicans fungi were taken. The experiments used for this survey were meat-pentonlu agar (EPA) for cultivation of bacteria and Saburo environment for fungi. Each experiment used 1 ml of test solution on each plate 500 min. Add 2 drops of emulsified with microbes feel. All experimental samples were taken from the agar after 10, 20, 40, 60 minutes in the environment on the basis of Patrk planted. Bacteria were cultivated at a temperature of 37° C. for 1 day and the mushroom was kept in a thermostat for […] at a temperature of 28° C. in the. Then results were checked.

St. Aereus = experiment: Antimicrobial testing by agar dilution, St. Aereus; conditions: Staphylococcus aureus; after 10, 20, 40 and 60 min at all dilutions 1:100, 1:200, 1:400, 1:800; summary in words
Description: as §1

Candida albicans = experiment: Antimicrobial testing by agar dilution, Candida albicans; conditions: after 10, 20, 40 and 60 min at all dilutions 1:100, 1:200, 1:400, 1:800, summary in words
Description: as §1

E. Coli = experiment: Antimicrobial testing by agar dilution, E. Coli; conditions: Escherichia coli; after 10, 20, 40 and 60 min at all dilutions 1:100, 1:200, 1:400, 1:800; summary in words
Description: as §1

Measured: inhibition activity

CCCCCCn1c(-c2ccc([N+](=O)[O-])cc2)nc(-c2ccccc2)c1-c1ccc(OC)cc1 [5-(4-methoxyphenyl)-1-hexyl-2-(4-nitrophenyl)-4-phenyl-1H-imidazole]
most higher inhibition activity: all assays above
